From PubChem BioAssay AID2060600 (Molecular Pharmacology Branch, DTP, NCI, 2025)
pIC50: −log10 of the molar value.

Test system: 996289-038-R-J1-PDC complex spheroid viability
Assay: Anticancer human tumor 996289-038-R-J1-PDC patient-derived colon adenocarcinoma cell line growth inhibition [CLK]
Settings: for pIC50: curve of first compound; for viability, T/C: stronger effect = lower value; active = viability on the fitted dose curve at most 10% of control; inactive = the rest
Source text: A high-throughput screen of multi-cell type tumor spheroids was designed to identify active combinations of […] and targeted small molecules. Complex spheroids include a stromal component modeled by human endothelial cells (HUVEC) and fibroblasts modeled by human mesenchymal stem cells (MSCs). The concentration ranges selected for each drug and investigational agent were based upon clinically achievable concentrations if the clinical Cmax of the agent was known.
Compounds. The drugs and investigational agents: cirtuvivint (SM08502; NSC835563), CC-671 (NSC850746), vemurafenib (NSC761431), tapotoclax (NSC804041), sotorasib (NSC818433), adagrasib (NSC831453), MRTX-1133 (NSC836407), BAY2416964 (NSC825713), copanlisib (NSC816437), inavolisib (NSC800729), abemaciclib (NSC768073), osimertinib (NSC779217), entinostat (NSC756642), eltanexor (KPT-8602, NSC794443), venetoclax (NSC766270), ceralasertib (NSC777638), bortezomib (NSC756655), olaparib (NSC753686), talazoparib (NSC767125), alisertib (NSC759677), peposertib (NSC802822), gemcitabine (NSC613327), 5-fluorouracil (NSC19893), SN-38 (NSC673596), oxaliplatin (NSC266046), paclitaxel (NSC125973), and doxorubicin (NSC123127), were obtained from the National Cancer Institute (NCI) Developmental Therapeutics Program Chemical Repository. The FDA-approved anticancer drug set is available from the Developmental Therapeutics Program at https://dtp.cancer.gov/organization/dscb/obtaining/available plates.htm. […] The stock solutions were prepared in dimethyl sulfoxide (DMSO, Sigma-Aldrich, St. Louis, MO, cat. D2650), except for the platinum complexes which were prepared in saline (Quality Biological, Gaithersburg, MD, cat. 114-055-101), at 800-fold the tested concentration and stored at -70 degrees C prior to their use. All drugs and investigational agents were tested over a range starting from a high concentration at or near the clinical Cmax and decreasing in half-log increments. If the clinical Cmax for an agent had not been determined, the highest concentration tested was 10 microM.
Cell Culture. All cells were maintained in an incubator at 37 degrees C and 5% CO2 with 95% humidity. The PDC lines were cultured according to standard operating procedures established by the NCI PDMR. Briefly, all PDCs were thawed and cultured in Matrigel-coated flasks prepared with a working solution of 1X Ham's F-12 nutrient mix, without supplementation (Invitrogen, Waltham, MA, cat. 11765054), 100 U/mL penicillin-streptomycin (Invitrogen, cat. 15140122), and 2.5% Matrigel (Corning Inc., Corning, NY, cat. 354248) for the first three passages. The 947758-054-R-J2-PDC line was cultured in 6B/Colon 1A media, which includes advanced DMEM/F-12 (Thermo Fisher Scientific, cat. 12634028), 10 mM HEPES (Thermo Fisher Scientific, cat. 15630080), 1X GlutaMAX supplement (Thermo Fisher Scientific, cat. 35050061), 0.1 mg/mL primocin (InvivoGen, cat. ant-pm-2), 10% defined fetal bovine serum, heat inactivated (HyClone Laboratories Inc., cat. SH30070.03HI), 1.25 mM N-Acetyl-L-cysteine (Sigma-Aldrich, cat. A9165), 10 mM nicotinamide (Sigma-Aldrich, cat. N0636), 1X B-27 supplement (Thermo Fisher Scientific, cat. 17504044), 1X N-2 supplement (Thermo Fisher Scientific, cat. 17502048), and 10 microM Y-27632 dihydrochloride (Tocris Bioscience, cat. 1254). The 876862-298-R-J1-PDC was cultured in 6E media, which includes all 6B/Colon 1A media components plus 50% L-WRN conditioned media (ATCC, cat. CRL-3276), 50 ng/mL recombinant human EGF recombinant protein (hEGF; Thermo Fisher Scientific, cat. PHG0311), 10 ng/mL recombinant human fibroblast growth factor 10 (hGFG-10; PeproTech, cat. 100-26), 1 ng/mL recombinant human fibroblast growth factor 2 (hFGF-2; PeproTech, cat. 100-18B), and 1 µM prostaglandin E2 (PGE2; Tocris, cat. 2296). The 227483-062-R1-J1-PDC line was cultured in Panc media, containing all 6E components except hFGF-2, with the addition of 500 nM SB-431542 (Selleckchem, cat. S1067) and 10 nM gastrin (Tocris, cat. 3006). […]

[1] = second compound 0.0316 µM, first compound 0.0316 µM
[2] = second compound 0.0316 µM, first compound 0.1 µM
[3] = second compound 0.0316 µM, first compound 0.316 µM
[4] = second compound 0.0316 µM, first compound 1 µM
[5] = second compound 0.1 µM, first compound 0.0316 µM
[6] = second compound 0.1 µM, first compound 0.1 µM
[7] = second compound 0.1 µM, first compound 0.316 µM
[8] = second compound 0.1 µM, first compound 1 µM
[9] = second compound 0.316 µM, first compound 0.0316 µM
[10] = second compound 0.316 µM, first compound 0.1 µM
[11] = second compound 0.316 µM, first compound 0.316 µM
[12] = second compound 0.316 µM, first compound 1 µM
[13] = second compound 1 µM, first compound 0.0316 µM
[14] = second compound 1 µM, first compound 0.1 µM
[15] = second compound 1 µM, first compound 0.316 µM
[16] = second compound 1 µM, first compound 1 µM
[17] = second compound 3.16 µM, first compound 0.0316 µM
[18] = second compound 3.16 µM, first compound 0.1 µM
[19] = second compound 3.16 µM, first compound 0.316 µM
[20] = second compound 3.16 µM, first compound 1 µM
[21] = second compound 10 µM, first compound 0.0316 µM
[22] = second compound 10 µM, first compound 0.1 µM
[23] = second compound 10 µM, first compound 0.316 µM
[24] = second compound 10 µM, first compound 1 µM
[25] = second compound 0.0316 µM, first compound 0.00316 µM
[26] = second compound 0.0316 µM, first compound 0.01 µM
[27] = second compound 0.1 µM, first compound 0.00316 µM
[28] = second compound 0.1 µM, first compound 0.01 µM
[29] = second compound 0.316 µM, first compound 0.00316 µM
[30] = second compound 0.316 µM, first compound 0.01 µM
[31] = second compound 1 µM, first compound 0.00316 µM
[32] = second compound 1 µM, first compound 0.01 µM
[33] = second compound 3.16 µM, first compound 0.00316 µM
[34] = second compound 3.16 µM, first compound 0.01 µM
[35] = second compound 10 µM, first compound 0.00316 µM
[36] = second compound 10 µM, first compound 0.01 µM
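Also: spheroids exposed to the agents for 7 days before readout.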

CC(Nc1ccc2c(c1)OCCn1cc(N3C(=O)OCC3C(F)F)nc1-2)C(N)=O (stereo unspecified) + CN1CCN(c2cc(C(=O)Nc3cc4cc(-c5cnn(C)c5)ccc4cn3)ccn2)CC1
inactive: viability, T/C [1] 88.1% | viability, T/C [2] 84.9% | viability, T/C [3] 71.8% | viability, T/C [4] 60.5% | viability, T/C (second compound 0.0316 µM, first compound 3.16 µM) 52.2% | viability, T/C (second compound 0.0316 µM, first compound 10 µM) 37.2% | viability, T/C [5] 91.5% | viability, T/C [6] 77.3% | viability, T/C [7] 62.1% | viability, T/C [8] 50.6% | viability, T/C (second compound 0.1 µM, first compound 3.16 µM) 41.6% | viability, T/C (second compound 0.1 µM, first compound 10 µM) 31.2% | viability, T/C [9] 62% | viability, T/C [10] 50.9% | viability, T/C [11] 46% | viability, T/C [12] 35.6% | viability, T/C (second compound 0.316 µM, first compound 3.16 µM) 35.9% | viability, T/C (second compound 0.316 µM, first compound 10 µM) 21.9%
active: viability, T/C [13] 2.6% | viability, T/C [14] 2.53% | viability, T/C [15] 2.23% | viability, T/C [16] 1.58% | viability, T/C (second compound 1 µM, first compound 3.16 µM) 1.47% | viability, T/C (second compound 1 µM, first compound 10 µM) 1.4% | viability, T/C [17] 3.59% | viability, T/C [18] 0.97% | viability, T/C [19] 1.63% | viability, T/C [20] 1.51% | viability, T/C (second compound 3.16 µM, first compound 3.16 µM) 1.33% | viability, T/C (second compound 3.16 µM, first compound 10 µM) 1.96% | viability, T/C [21] 1.51% | viability, T/C [22] 0.78% | viability, T/C [23] 1.23% | viability, T/C [24] 0.65% | viability, T/C (second compound 10 µM, first compound 3.16 µM) 0.6% | viability, T/C (second compound 10 µM, first compound 10 µM) 0.47%
6.80: pIC50 (second compound 0.316 µM)
5.96: pIC50 (second compound 0.1 µM)
> 7.50: pIC50 (second compound 1 µM) | pIC50 (second compound 3.16 µM) | pIC50 (second compound 10 µM)
5.50: pIC50 (second compound 0.0316 µM)

CCN1CCN(Cc2ccc(Nc3ncc(F)c(-c4cc(F)c5nc(C)n(C(C)C)c5c4)n3)nc2)CC1 + CN1CCN(c2cc(C(=O)Nc3cc4cc(-c5cnn(C)c5)ccc4cn3)ccn2)CC1
> 8.50: pIC50 (second compound 1 µM) | pIC50 (second compound 3.16 µM) | pIC50 (second compound 10 µM)
< 6.00: pIC50 (second compound 0.0316 µM) | pIC50 (second compound 0.1 µM)
active: viability, T/C [31] 6.12% | viability, T/C [32] 6.14% | viability, T/C [13] 7.95% | viability, T/C [14] 8.35% | viability, T/C [15] 10.1% | viability, T/C [16] 2.91% | viability, T/C [33] 1.14% | viability, T/C [34] 1.05% | viability, T/C [17] 0.74% | viability, T/C [18] 1.08% | viability, T/C [19] 1.2% | viability, T/C [20] 2.28% | viability, T/C [35] 0.58% | viability, T/C [36] 0.55% | viability, T/C [21] 0.57% | viability, T/C [22] 0.88% | viability, T/C [23] 0.37% | viability, T/C [24] 0.53%
inactive: viability, T/C [25] 95.8% | viability, T/C [26] 97.3% | viability, T/C [1] 82.6% | viability, T/C [2] 82.5% | viability, T/C [3] 79.7% | viability, T/C [4] 76.8% | viability, T/C [27] 101% | viability, T/C [28] 85.7% | viability, T/C [5] 86.4% | viability, T/C [6] 81.4% | viability, T/C [7] 68.8% | viability, T/C [8] 71% | viability, T/C [29] 64.8% | viability, T/C [30] 62.5% | viability, T/C [9] 58.7% | viability, T/C [10] 53.4% | viability, T/C [11] 51.3% | viability, T/C [12] 50.8%
6.12: pIC50 (second compound 0.316 µM)

COc1c(OCCCN2CCOCC2)ccc2c3n(c(=NC(=O)c4cnc(N)nc4)nc12)CCN3 + CN1CCN(c2cc(C(=O)Nc3cc4cc(-c5cnn(C)c5)ccc4cn3)ccn2)CC1
active: viability, T/C [12] 8.17% | viability, T/C [31] 2.97% | viability, T/C [32] 3.06% | viability, T/C [13] 3.03% | viability, T/C [14] 1.3% | viability, T/C [15] 1.59% | viability, T/C [16] 3.21% | viability, T/C [33] 0.97% | viability, T/C [34] 0.95% | viability, T/C [17] 2.68% | viability, T/C [18] 0.71% | viability, T/C [19] 2.1% | viability, T/C [20] 1.27% | viability, T/C [35] 1.28% | viability, T/C [36] 0.97% | viability, T/C [21] 0.74% | viability, T/C [22] 0.86% | viability, T/C [23] 0.56% | viability, T/C [24] 0.61%
inactive: viability, T/C [25] 87.7% | viability, T/C [26] 88.8% | viability, T/C [1] 64.5% | viability, T/C [2] 43.9% | viability, T/C [3] 30.1% | viability, T/C [4] 18.7% | viability, T/C [27] 86% | viability, T/C [28] 66.7% | viability, T/C [5] 56.4% | viability, T/C [6] 33.5% | viability, T/C [7] 24.8% | viability, T/C [8] 13.5% | viability, T/C [29] 56.9% | viability, T/C [30] 50% | viability, T/C [9] 36.3% | viability, T/C [10] 21% | viability, T/C [11] 12.7%
8.01: pIC50 (second compound 0.316 µM)
7.13: pIC50 (second compound 0.0316 µM)
7.42: pIC50 (second compound 0.1 µM)
> 8.50: pIC50 (second compound 1 µM) | pIC50 (second compound 3.16 µM) | pIC50 (second compound 10 µM)
